# “And” between values parts separate entries of the source, which are not always exact repeats. Identical values can stand only once.
# Test: solvent given as SMILES
# Conditions: in C1CCCCC1
row,Compound,emission maximum [nm]
1,N#CC(C#N)=C(c1ccc(N(c2ccccc2)c2ccccc2)cc1)c1ccc(N(c2ccccc2)c2ccccc2)cc1,413.3
2,c1ccc(-c2ccc(-c3ccc4c(c3)CCO4)cc2)cc1,377
3,COc1ccc(/C=C/c2ccccc2)cc1,364

# Same assay, conditions: in C1CCOC1
row,Compound,emission maximum [nm]
1,COc1ccc(/C=C/C=C/C=C/c2ccc([N+](=O)[O-])cc2)cc1,611
2,CCOC(=O)C1=CN(c2ccccc2)C=C(C(=O)OCC)C1c1ccccc1,412
3,O=Cc1ccc(-c2ccc(C3=CCC(c4ccccc4)CC3)s2)s1 (stereo not drawn),446
4,COc1cc(/C=C/c2ccncc2)c(OC)cc1C=O,448
5,O=c1oc2ccccc2cc1-c1ccc([N+](=O)[O-])cc1,421

# Same assay, conditions: in C1COCCO1
row,Compound,emission maximum [nm]
1,COc1ccc(/C=C/C=C/C=C/c2ccc([N+](=O)[O-])cc2)cc1,565
2,O=C1/C(=C2\Sc3ccc(S(=O)(=O)Cl)cc3C2=O)Sc2ccc(S(=O)(=O)Cl)cc21,576

# More lines, now with the values ahead:
row,emission maximum [nm],Compound
1,589,COC(=O)c1ccc(/C=C2\C=C(c3ccc(C#N)cc3)N(CC(C)C)C2=O)cc1
2,554,CCOC(=O)c1sc2nc(-c3ccccc3)c(C)c(C#N)c2c1N

# Same assay, conditions: in CC1CCCCC1
row,Compound,emission maximum [nm]
1,COc1ccc(/C=C/C=C/C=C/c2ccc([N+](=O)[O-])cc2)cc1,485

# Same assay, conditions: in CC#N
row,Compound,emission maximum [nm]
1,COc1ccc(/C=C/C=C/C=C/c2ccc([N+](=O)[O-])cc2)cc1,740
2,COC1=[N+]2C(=C(c3ccccc3)c3ccc(OC)n3[B-]2(F)F)C=C1SC#N,539
3,Cc1cc(O)c(C(=O)/C=C/c2ccc(O)c(O)c2)c(=O)o1,518
4,CC1(C)C2=C(c3ccc(N(c4ccccc4)c4ccccc4)cc31)P(=O)(c1ccccc1)c1ccccc12 (stereo not drawn),580
5,CCC1=C(C)C2=C(c3c4ccccc4c(C)c4ccccc34)c3c(C)c(CC)c(C)n3[B-](F)(F)[N+]2=C1C,538
6,O=Cc1ccc(-c2ccc(C3=CCC(c4ccccc4)CC3)s2)s1 (stereo not drawn),483
7,COc1cc(/C=C/c2ccncc2)c(OC)cc1C=O,465
8,COc1ccc(/C=C/c2ccccc2)cc1,374

# Second part, the molecule after the results:
row,emission maximum [nm],Compound
1,532,F[B-]1(F)n2c(Cl)ccc2C(c2c(Cl)cccc2Cl)=C2C=CC(NCc3ccccc3)=[N+]21
2,475,O=c1oc2ccc3ccccc3c2nc1-c1ccccc1
3,409,O=c1oc2ccccc2cc1-c1ccc([N+](=O)[O-])cc1
4,417,CC(C)(C)C1Nc2ccccc2C(=O)N1c1ccccc1 (stereo not drawn)
5,570,CCOC(=O)c1sc2nc(-c3ccccc3)c(C)c(C#N)c2c1N

# Same assay, conditions: in CC(C)=O
row,Compound,emission maximum [nm]
1,N#CC(C#N)=C(c1ccc(N(c2ccccc2)c2ccccc2)cc1)c1ccc(N(c2ccccc2)c2ccccc2)cc1,505.58

# Same assay, conditions: in CC(C)O
row,Compound,emission maximum [nm]
1,COc1ccc(/C=C/c2ccccc2)cc1,365

# Same assay, conditions: in CCCCCC
row,Compound,emission maximum [nm]
1,COC1=[N+]2C(=C(c3ccccc3)c3ccc(OC)n3[B-]2(F)F)C=C1SC#N,542
2,CCC1=C(C)C2=C(c3c4ccccc4c(C)c4ccccc34)c3c(C)c(CC)c(C)n3[B-](F)(F)[N+]2=C1C,540
3,O=Cc1ccc(-c2ccc(C3=CCC(c4ccccc4)CC3)s2)s1 (stereo not drawn),443

# Next, values leading:
row,emission maximum [nm],Compound
1,538,F[B-]1(F)n2c(Cl)ccc2C(c2c(Cl)cccc2Cl)=C2C=CC(NCc3ccccc3)=[N+]21
2,453,O=c1oc2ccc3ccccc3c2nc1-c1ccccc1

# Same assay, conditions: in CCCCCCC
row,emission maximum [nm],Compound
1,482,c1ccc2c3c(ccc2c1)-c1cccc2c1c-3cc1ccccc12

# Same assay, conditions: in CCCCCCCCCCCCCCCC
row,emission maximum [nm],Compound
1,388,CC(C)(C)C1Nc2ccccc2C(=O)N1c1ccccc1 (stereo not drawn)

# Same assay, conditions: in CCCCOCCCC
row,Compound,emission maximum [nm]
1,COc1ccc(/C=C/c2ccccc2)cc1,367

# Same assay, conditions: in CCO
row,Compound,emission maximum [nm]
1,CCC1=C(C)C2=C(c3c4ccccc4c(C)c4ccccc34)c3c(C)c(CC)c(C)n3[B-](F)(F)[N+]2=C1C,538
2,O=Cc1ccc(-c2ccc(C3=CCC(c4ccccc4)CC3)s2)s1 (stereo not drawn),498
3,CC(C)(C)c1cc(C(C)(C)C)c(-c2nnc(-c3ccc(-n4c5ccccc5c5ccccc54)cc3)o2)c(C(C)(C)C)c1,432
4,CCOC(=O)c1sc2nc(-c3ccccc3)c(C)c(C#N)c2c1N,580

# Same assay, conditions: in CCOC(C)=O
row,Compound,emission maximum [nm]
1,COC1=[N+]2C(=C(c3ccccc3)c3ccc(OC)n3[B-]2(F)F)C=C1SC#N,543
2,COc1ccc(/C=C/c2ccccc2)cc1,366

# The remaining lines, values ahead:
row,emission maximum [nm],Compound
1,532,F[B-]1(F)n2c(Cl)ccc2C(c2c(Cl)cccc2Cl)=C2C=CC(NCc3ccccc3)=[N+]21
2,558,CCOC(=O)c1sc2nc(-c3ccccc3)c(C)c(C#N)c2c1N

# Same assay, conditions: in CCOCC
row,Compound,emission maximum [nm]
1,COc1ccc(/C=C/c2ccccc2)cc1,366

# Same assay, conditions: in CN(C)C=O
row,Compound,emission maximum [nm]
1,N#CC(C#N)=C(c1ccc(N(c2ccccc2)c2ccccc2)cc1)c1ccc(N(c2ccccc2)c2ccccc2)cc1,515.24
2,CCC1=C(C)C2=C(c3c4ccccc4c(C)c4ccccc34)c3c(C)c(CC)c(C)n3[B-](F)(F)[N+]2=C1C,540
3,COc1cc(/C=C/c2ccncc2)c(OC)cc1C=O,463
4,CCCCCCCCC1(CCCCCCCC)c2cc(-c3ccc([N+](=O)[O-])cc3)ccc2-c2ccc(-c3ccc([N+](=O)[O-])cc3)cc21,569

# Same assay, conditions: in CO
row,Compound,emission maximum [nm]
1,COc1ccc(/C=C/C=C/C=C/c2ccc([N+](=O)[O-])cc2)cc1,690
2,COC1=[N+]2C(=C(c3ccccc3)c3ccc(OC)n3[B-]2(F)F)C=C1SC#N,540
3,CC1(C)C2=C(c3ccc(N(c4ccccc4)c4ccccc4)cc31)P(=O)(c1ccccc1)c1ccccc12 (stereo not drawn),598

# Now from value to molecule:
row,emission maximum [nm],Compound
1,426,CCOC(=O)C1=CN(c2ccccc2)C=C(C(=O)OCC)C1c1ccccc1
2,531,F[B-]1(F)n2c(Cl)ccc2C(c2c(Cl)cccc2Cl)=C2C=CC(NCc3ccccc3)=[N+]21
3,476,O=c1oc2ccc3ccccc3c2nc1-c1ccccc1
4,449,CC(C)(C)C1Nc2ccccc2C(=O)N1c1ccccc1 (stereo not drawn)
5,583,COc1ccc2[nH]cc(/C=C/C3=[NH+]c4cccc5cccc3c45)c2c1

# Same assay, conditions: in CS(C)=O
row,emission maximum [nm],Compound
1,624,O=C1/C(=C2\Sc3ccc(S(=O)(=O)Cl)cc3C2=O)Sc2ccc(S(=O)(=O)Cl)cc21
2,662,Clc1ccc(-c2c3nc(c(-c4ccc(Cl)cc4)c4ccc([nH]4)c(-c4ccc(Cl)cc4)c4nc(c(-c5ccc(Cl)cc5)c5ccc2[nH]5)C=C4N2CCOCC2)C=C3)cc1
3,425,O=c1oc2ccccc2cc1-c1ccc([N+](=O)[O-])cc1
4,589,CCCCCCCCC1(CCCCCCCC)c2cc(-c3ccc([N+](=O)[O-])cc3)ccc2-c2ccc(-c3ccc([N+](=O)[O-])cc3)cc21
5,386.5,Cc1ccc2nc(-c3cc(-c4nc5ccc(C)cc5[nH]4)cc(-c4nc5ccc(C)cc5[nH]4)c3)[nH]c2c1

row,Compound,emission maximum [nm]
1,COc1ccc(/C=C/C=C/C=C/c2ccc([N+](=O)[O-])cc2)cc1,744

# Same assay, conditions: in Cc1ccccc1
row,Compound,emission maximum [nm]
1,COc1ccc(/C=C/C=C/C=C/c2ccc([N+](=O)[O-])cc2)cc1,541
2,N#CC(C#N)=C(c1ccc(N(c2ccccc2)c2ccccc2)cc1)c1ccc(N(c2ccccc2)c2ccccc2)cc1,439.48
3,COc1ccc(C2=C(c3ccc(OC)cc3)C(c3ccccc3)=[N+]3C2=Nc2c(-c4ccc(OC)cc4)c(-c4ccc(OC)cc4)c(-c4ccccc4)n2[B-]3(F)F)cc1,750
4,CC1(C)C2=C(c3ccc(N(c4ccccc4)c4ccccc4)cc31)P(=O)(c1ccccc1)c1ccccc12 (stereo not drawn),511
5,CCC1=C(C)C2=C(c3c4ccccc4c(C)c4ccccc34)c3c(C)c(CC)c(C)n3[B-](F)(F)[N+]2=C1C,544
6,COc1cc(/C=C/c2ccncc2)c(OC)cc1C=O,446
7,COCCC1=Cc2nc1ccc1[nH]c(cc1CCOC)c1nc(c(N)cc3[nH]c2cc3CCOC)C(CCOC)=C1,748
8,CCN(CC)c1ccc([N+]2=Cc3ccc4c5c(ccc4c3O[B-]2(c2ccccc2)c2ccccc2)C=[N+](c2ccc(N(CC)CC)cc2)[B-](c2ccccc2)(c2ccccc2)O5)cc1,627
9,CC(C)(C)c1cc(C(C)(C)C)c(-c2nnc(-c3ccc(-n4c5ccccc5c5ccccc54)cc3)o2)c(C(C)(C)C)c1,376
10,CC1(C)c2ccccc2N(c2cc[n+]3c(c2)-c2ccccc2O[B-]3(F)F)c2ccccc21,540
11,COc1ccc(-c2n[n+]3c(s2)N=C(c2ccccc2)O[B-]3(F)F)cc1,436

# Same assay, conditions: in ClC(Cl)Cl
row,Compound,emission maximum [nm]
1,COc1ccc(/C=C/C=C/C=C/c2ccc([N+](=O)[O-])cc2)cc1,681
2,N#CC(C#N)=C(c1ccc(N(c2ccccc2)c2ccccc2)cc1)c1ccc(N(c2ccccc2)c2ccccc2)cc1,491.2
3,CCCCCCCCC1(CCCCCCCC)c2cc(-c3ccc([N+](=O)[O-])cc3)ccc2-c2ccc(-c3ccc([N+](=O)[O-])cc3)cc21,538

# Results, then the molecule that gave them:
row,emission maximum [nm],Compound
1,469.48,CCCCCCn1c2cc(/C=C(\C#N)c3ccccc3)ccc2c2ccc(/C=C(\C#N)c3ccccc3)cc21
2,400,O=c1oc2ccccc2cc1-c1ccc([N+](=O)[O-])cc1
3,409,CC(C)(C)C1Nc2ccccc2C(=O)N1c1ccccc1 (stereo not drawn)
4,550,CCOC(=O)c1sc2nc(-c3ccccc3)c(C)c(C#N)c2c1N

# Same assay, conditions: in ClCCl
row,Compound,emission maximum [nm]
1,COc1ccc(/C=C/C=C/C=C/c2ccc([N+](=O)[O-])cc2)cc1,694
2,COC1=[N+]2C(=C(c3ccccc3)c3ccc(OC)n3[B-]2(F)F)C=C1SC#N,543
3,Cc1cc(O)c(C(=O)/C=C/c2ccc(O)c(O)c2)c(=O)o1,493
4,CCC1=C(C)C2=C(c3c4ccccc4c(C)c4ccccc34)c3c(C)c(CC)c(C)n3[B-](F)(F)[N+]2=C1C,543
5,COc1cc(/C=C/c2ccncc2)c(OC)cc1C=O,460
6,CCN(CC)c1ccc([N+]2=Cc3ccc4c5c(ccc4c3O[B-]2(c2ccccc2)c2ccccc2)C=[N+](c2ccc(N(CC)CC)cc2)[B-](c2ccccc2)(c2ccccc2)O5)cc1,644

# Next, values leading:
row,emission maximum [nm],Compound
1,648,CC1=c2ccccc2=[N+]2C1=Cc1c3ccccc3c(-c3[nH]c4ccccc4c3C)n1[B-]2(F)F
2,385,C(=C\c1ccc(-c2ccccc2)cc1)/c1ccc(Oc2ccc3ccccc3c2-c2c(Oc3ccc(/C=C/c4ccc(-c5ccccc5)cc4)cc3)ccc3ccccc23)cc1
3,431,COC(=O)C1=C(C(=O)OC)C2(c3ccccc3-c3ccccc32)[C@@H](c2ccccc2)C=C2c3cc(OC)c(OC)cc3CCN21
4,537,F[B-]1(F)n2c(Cl)ccc2C(c2c(Cl)cccc2Cl)=C2C=CC(NCc3ccccc3)=[N+]21
5,560,F[B-]1(F)N2C=CN=CC2=[N+]2[N+]1=Cc1c(-c3ccccc3)cc(-c3ccccc3)n1[B-]2(F)F
6,748,CN(C)c1ccc(C2=C3C=C(c4ccc(C=C(C#N)C#N)cc4)S[C@]34c3ccccc3[C@H]2c2ccccc24)cc1
7,406,CCOC(=O)c1c(-c2c(Cl)c3ccccc3oc2=O)nn(-c2ccccc2)c1C(=O)OCC
8,450,CCCCn1c2ccccc2c2cc(C#Cc3ccc4ccc5cccc6ccc3c4c56)ccc21
9,420,COc1ccc(-c2ccc(C(=O)NC(C)(C)C)c3c2ccc2c4ccccc4c4ccccc4c23)cc1

# Same assay, conditions: in O
row,emission maximum [nm],Compound
1,615,O=S(=O)([O-])c1cc(S(=O)(=O)Cl)ccc1C1=c2cc3c4c(c2Oc2c1cc1c5c2CCCN5CCC1)CCC[N+]=4CCC3

# Same assay, conditions: in O=P(c1ccccc1)(c1ccccc1)c1ccccc1Oc1ccccc1P(=O)(c1ccccc1)c1ccccc1
row,Compound,emission maximum [nm]
1,CC1(C)c2ccccc2N(c2cc[n+]3c(c2)-c2ccccc2O[B-]3(F)F)c2ccccc21,542

# Same assay, conditions: in OCCOCCO
row,Compound,emission maximum [nm]
1,O=Cc1ccc(-c2ccc(C3=CCC(c4ccccc4)CC3)s2)s1 (stereo not drawn),506

# Same assay, conditions: in c1ccccc1
row,emission maximum,Compound
1,467 nm and 460 nm,O=c1oc2ccc3ccccc3c2nc1-c1ccccc1
2,400 nm,CC(C)(C)C1Nc2ccccc2C(=O)N1c1ccccc1 (stereo not drawn)
3,549 nm,CCOC(=O)c1sc2nc(-c3ccccc3)c(C)c(C#N)c2c1N

# Same assay, conditions: in c1ccncc1
row,Compound,emission maximum [nm]
1,O=Cc1ccc(-c2ccc(C3=CCC(c4ccccc4)CC3)s2)s1 (stereo not drawn),481

# From the Deep4Chem optical property database
